Experimental data taken from patent US20150184166A1 (Uinversity of Iowa Research Foundation, priority 2012, published 2015).
“And” between values parts separate entries of the source, which are not always exact repeats. Equal values may be shown once. Read-outs that look alike come from different tables or passages of the source.

Tests used:
[1] = molecular target: T1, NdmA-His6 (Pseudomonas putida, UniProt H9N289); experiment: Kinetic parameters of NdmA-His6 with His6-NdmD; format: biochemical, Pseudomonas putida CBB5; settings: for kcat / Km: NdmA-His6 plus His6-NdmD, pH 7.5, 30° C.
T1 sequence (H9N289 1-351): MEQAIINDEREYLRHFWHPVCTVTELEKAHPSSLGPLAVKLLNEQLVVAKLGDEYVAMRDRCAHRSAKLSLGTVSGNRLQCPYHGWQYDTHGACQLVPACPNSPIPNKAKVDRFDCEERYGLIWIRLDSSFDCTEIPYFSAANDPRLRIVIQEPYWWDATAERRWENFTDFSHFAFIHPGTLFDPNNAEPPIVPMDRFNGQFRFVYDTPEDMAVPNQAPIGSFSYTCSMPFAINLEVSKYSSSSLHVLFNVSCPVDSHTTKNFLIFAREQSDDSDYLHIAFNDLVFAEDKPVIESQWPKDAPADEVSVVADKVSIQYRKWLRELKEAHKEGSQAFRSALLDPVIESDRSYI
Protocol: (§1) Methylxanthine N-demethylase activity assay contained, in 1-ml total volume, 0.5 mM methylxanthine, 1 mM NADH, 50 μM Fe(NH4)2(SO4)2, and an appropriate amount of NdmA-His6 or NdmB-His6 (7.4 μg-2.5 mg protein depending on substrate specificity) in 50 mM KPi buffer (pH 7.5). Approximately 4 U of partially purified reductase, prepared as described previously (Summers et al., 2011) or 59 U of purified His6-NdmD was added to reaction mixture. Catalase from bovine liver (4,000 U) was also added to reactions containing His6-NdmD. The reaction mixture was incubated at 30° C. with 300 rpm shaking on an incubating microplate shaker (VWR, Radnor, Pa.). Periodically, a small aliquot was sampled from the reaction mixture and mixed with equal volume of acetonitrile for quantifying concentrations of methylxanthines and N-demethylated products by HPLC. One unit of N-demethylase activity was defined as the consumption of one […] methylxanthine per minute.
(§2) Apparent kinetic parameters of NdmA-His6 and NdmB-His6 were determined by measuring the initial rate of disappearance (vo) of methylxanthines in 50 mM KPi buffer (pH 7.5) at 30° C. The initial substrate concentrations ([S]) used in these experiments were from 25 to 500 μM. Substrates were incubated with His6-NdmD plus either NdmA-His6 or NdmB-His6 under standard conditions for 15 minutes. At 1, 5, 10, and 15 minutes, samples were removed from the reaction mixtures to quantitate substrate concentrations by HPLC. Plots of substrate concentrations against time were used to determine the initial rates of disappearance of substrates which were linear over 15 minutes. The apparent kinetic parameters were determined from Michaelis-Menten plots of vo against [S] fitted with the equation

[2] = molecular target: NdmB-His6 (Pseudomonas putida, UniProt H9N290); experiment: Kinetic parameters of NdmB-His6 with His6-NdmD; format: biochemical, Pseudomonas putida CBB5; settings: for Km / kcat: NdmB-His6 plus His6-NdmD, pH 7.5, 30° C.
Protocol: as §1, §2

[3] = test system: cell extracts of P. putida CBB5; experiment: NADH-dependent N-demethylase activity of CBB5 cell extracts; format: biochemical, Pseudomonas putida CBB5; settings: 0.5 mM substrate, 7.2 mg mL^−1 protein
[4] = molecular target: T2, Caffeine dehydrogenase (Cdh) (Pseudomonas sp., UniProt D7REY3); settings: cited from earlier work
T2 sequence (D7REY3 1-791): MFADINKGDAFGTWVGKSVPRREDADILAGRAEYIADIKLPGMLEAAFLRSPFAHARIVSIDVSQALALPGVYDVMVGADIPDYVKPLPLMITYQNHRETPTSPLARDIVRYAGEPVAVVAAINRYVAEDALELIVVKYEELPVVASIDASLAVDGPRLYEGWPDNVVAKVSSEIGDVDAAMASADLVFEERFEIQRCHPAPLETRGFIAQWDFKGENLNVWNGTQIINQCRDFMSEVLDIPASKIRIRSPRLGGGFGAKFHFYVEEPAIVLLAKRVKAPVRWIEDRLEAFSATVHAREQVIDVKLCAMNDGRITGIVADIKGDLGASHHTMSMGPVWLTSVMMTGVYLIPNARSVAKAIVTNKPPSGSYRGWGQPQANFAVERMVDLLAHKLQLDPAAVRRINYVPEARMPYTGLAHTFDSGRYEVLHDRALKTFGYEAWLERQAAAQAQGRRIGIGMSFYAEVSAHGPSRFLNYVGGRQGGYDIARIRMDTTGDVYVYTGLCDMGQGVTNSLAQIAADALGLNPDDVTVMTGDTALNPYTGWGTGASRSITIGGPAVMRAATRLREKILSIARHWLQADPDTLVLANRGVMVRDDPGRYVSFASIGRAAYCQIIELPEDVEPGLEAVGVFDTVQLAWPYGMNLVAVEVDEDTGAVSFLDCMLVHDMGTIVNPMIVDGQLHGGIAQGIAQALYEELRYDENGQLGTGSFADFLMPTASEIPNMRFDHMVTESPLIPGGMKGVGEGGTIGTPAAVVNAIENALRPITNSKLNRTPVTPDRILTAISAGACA
T2 sequence (D7REY4 1-295 partner): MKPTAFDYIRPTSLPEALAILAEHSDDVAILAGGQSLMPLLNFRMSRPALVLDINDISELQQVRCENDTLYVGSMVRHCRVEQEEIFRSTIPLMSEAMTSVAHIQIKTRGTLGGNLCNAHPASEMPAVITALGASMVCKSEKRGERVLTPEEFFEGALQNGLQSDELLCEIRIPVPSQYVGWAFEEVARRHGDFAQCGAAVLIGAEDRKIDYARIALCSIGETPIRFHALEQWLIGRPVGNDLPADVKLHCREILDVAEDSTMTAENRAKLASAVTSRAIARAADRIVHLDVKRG
T2 sequence (D7REY5 1-167 partner): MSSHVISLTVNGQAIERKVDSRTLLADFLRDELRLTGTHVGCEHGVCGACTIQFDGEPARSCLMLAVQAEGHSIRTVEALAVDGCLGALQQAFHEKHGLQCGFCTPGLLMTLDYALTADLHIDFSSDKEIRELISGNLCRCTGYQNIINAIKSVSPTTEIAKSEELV

[5] = test system: NdmC; experiment: N-demethylation by NdmC fraction co-purified with reductase; format: biochemical, Pseudomonas putida CBB5
From the text: This activity was neither associated with NdmA nor with NdmB. […] Cloning of NdmC has proven difficult; nevertheless based on the fact that purified His6-NdmD had no activity on 7-methylxanthine, we annotate orf 8 as aanother RO with highly specific N-7 demthylase activity.

[6] = test system: Ndm (methylxanthine N-demethylase) with Ccr reductase
[7] = molecular target: Ndm (methylxanthine N-demethylase) with Ccr reductase (Pseudomonas putida, UniProt H9N289+H9N290); settings: for O-demethylation by Ndm: prolonged incubation
[8] = molecular target: T3, Ndm, two-subunit N-demethylase component purified from Pseudomonas putida CBB5, H9N289
T3 chain 1: T1 sequence (H9N289 1-351)
T3 chain 2: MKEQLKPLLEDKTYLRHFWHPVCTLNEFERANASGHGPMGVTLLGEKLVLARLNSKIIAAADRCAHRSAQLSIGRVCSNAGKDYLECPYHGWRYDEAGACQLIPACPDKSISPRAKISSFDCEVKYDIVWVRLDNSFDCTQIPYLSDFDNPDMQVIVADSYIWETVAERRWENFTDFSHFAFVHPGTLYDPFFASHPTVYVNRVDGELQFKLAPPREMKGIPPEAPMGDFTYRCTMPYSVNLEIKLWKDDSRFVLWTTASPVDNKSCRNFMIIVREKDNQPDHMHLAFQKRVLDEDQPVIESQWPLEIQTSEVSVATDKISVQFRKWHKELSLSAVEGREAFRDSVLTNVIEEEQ

**Q.** With Cn1c(=O)[nH]c2nc[nH]c2c1=O [1-methylxanthine] as the molecule, how does the kcat [1] read?
**A.** The kcat was 0.26 s⁻¹.

**Q.** What about the Km ([1]; read-out: Km) of the same molecule?
**A.** The Km was 267 µM.

**Q.** What about the “N-demethylation activity of NdmB” value [2] of the same molecule?
**A.** The value was “no activity”.

**Q.** What about the Km [2] of the same molecule?
**A.** Its Km is “∞”.

**Q.** What does the source list for Cn1c(=O)[nH]c(=O)c2[nH]cnc21 [3-Methylxanthine, 3-methylxanthine]?
**A.** N-demethylation activity of NdmA [1]: inactive; Km [1]: ∞; kcat [2]: 0.528 s⁻¹; Km ([2]; read-out: Km): 22.4 µM

**Q.** With Cn1c(=O)c2c(ncn2C)n(C)c1=O [Caffeine, 1,3,7-trimethylxanthine] as the molecule, how does the “degradation rate compared with paraxanthine” value [3] read?
**A.** The value was “significantly slower”.

**Q.** What about the Km ([4]; Yu et al., 2008) of the same molecule?
**A.** Its Km is 3.7 ± 0.9 µM.

**Q.** What about the “N-demethylation by NdmC/reductase fraction” value [5] of the same molecule?
**A.** The value was “not N-demethylated”.

**Q.** And the kcat [1]?
**A.** Its kcat is 3.205 s⁻¹.

**Q.** And the Km ([1]; read-out: Km)?
**A.** The Km was 37.6 µM.

**Q.** What about the kcat [2] of the same molecule?
**A.** The kcat was 0.00383 s⁻¹.

**Q.** And the Km ([2]; read-out: Km)?
**A.** The Km was 41.7 µM.

**Q.** With Cn1c(=O)[nH]c2ncn(C)c2c1=O [Paraxanthine, 1,7-dimethylxanthine] as the molecule, how does the “time to complete utilization” value ([3]; 0.5 mM NADH) read?
**A.** Its value is “about 20 minutes”.

**Q.** What about the Km ([6]; read-out: apparent KM, saturating Ccr, 50 μM Fe2+, 30° C., 50 mM KPi pH 7.5) of the same molecule?
**A.** The Km was 50.4 ± 6.8 µM.

**Q.** And the apparent kcat ([6]; saturating Ccr, 50 μM Fe2+, 30° C., 50 mM KPi pH 7.5)?
**A.** Its apparent kcat is 0.27 ± 0.01 s⁻¹.

**Q.** And the “paraxanthine N-demethylated” value ([7]; after 13 minutes, 100 μM paraxanthine, 0.2 mg Ndm, 4 U Ccr)?
**A.** Its value is 60.2 µM.

**Q.** And the “N-demethylation by NdmC/reductase fraction” value [5]?
**A.** The value was “not N-demethylated”.

**Q.** What about the kcat [1] of the same molecule?
**A.** The kcat was 2.215 s⁻¹.

**Q.** And the Km ([1]; read-out: Km)?
**A.** The Km was 52.9 µM.

**Q.** What about the “N-demethylation activity of NdmB” value [2] of the same molecule?
**A.** Its value is “no activity”.

**Q.** And the Km [2]?
**A.** Its Km is “∞”.

**Q.** With Cn1cnc2c1c(=O)[nH]c(=O)n2C [Theobromine, 3,7-dimethylxanthine] as the molecule, how does the “degradation rate compared with paraxanthine” value [3] read?
**A.** The value was “significantly slower”.

**Q.** And the “Preference as a substrate, times less than caffeine” value [4]?
**A.** Its value is 50 times.

**Q.** And the “N-demethylation by NdmC/reductase fraction” value [5]?
**A.** The value was “not N-demethylated”.

**Q.** And the “N-demethylation activity of NdmA” value [1]?
**A.** The value was “inactive”.

**Q.** And the Km [1]?
**A.** The Km was “∞”.

**Q.** What about the kcat [2] of the same molecule?
**A.** Its kcat is 0.772 s⁻¹.

**Q.** What about the Km ([2]; read-out: Km) of the same molecule?
**A.** The Km was 25.3 µM.

**Q.** Which results are given for Cn1c(=O)c2[nH]cnc2n(C)c1=O [Theophylline, 1,3-dimethylxanthine]?
**A.** degradation rate compared with paraxanthine [3]: significantly slower; activity of Cdh [4]: no activity; activity of Cdh in substrate specificity study [4]: 5%; kcat [2]: 0.0045 s⁻¹; Km ([2]; read-out: Km): 169 µM

**Q.** With COc1cc(C(=O)O)ccc1O [vanillate] as the molecule, how does the “O-demethylation by Ndm” value [7] read?
**A.** Its value is “did not catalyze O-demethylation”.

**Q.** For COc1cc(C=O)ccc1O [vanillin], which “O-demethylation by Ndm” value [7] is on record?
**A.** The value was “did not catalyze O-demethylation”.

**Q.** Which “activity of Cdh” value [4] does the source give for O=c1[nH]c(=O)c2[nH]cnc2[nH]1 [xanthine] here?
**A.** Its value is “no activity”.

**Q.** What about the “activity of Cdh in substrate specificity study” value [4] of the same molecule?
**A.** Its value is “none”.

**Q.** And the “product formed from paraxanthine” value ([6]; 90 minutes, 7.4 mU (7.4 units) of Ndm)?
**A.** The value was 193.7 ± 4.0 µM and 193.7 ± 14.0 µM.

**Q.** What about the N-demethylation product present ([6]; from paraxanthine, after 13 minutes) of the same molecule?
**A.** Its N-demethylation product present is roughly 20.3 µM.

B1: Reductase component of Pseudomonas sp. 9816 naphthalene dioxygenase (protein)
chain: MELLIQPNNRIIPFSAGANLLEVLRENGVAISYSCLSGRCGTCRCRVIDGSVIDSGAENGQSNLTDKQYVLACQSVLTGNCAIEVPEADEIVTHPARIIKGTVVAVESPTHDIRRLRVRLSKPFEFSPGQYATLQFSPEHARPYSMAGLPDDQEMEFHIRKVPGGRVTEYVFEHVREGTSIKLSGPLGTAYLRQKHTGPMLCVGGGTGLAPVLSIVRGALKSGMTNPILLYFGVRSQQDLYDAERLHKLAADHPQLTVHTVIATGPINEGQRAGLITDVIEKDILSLAGWRAYLCGAPAMVEALCTVTKHLGISPEHIYADAFYPGGI
**Q.** For B1, which N-demethylase activity [8] is on record?
**A.** The N-demethylase activity was “Ndm did not function in the presence of the reductase and ferredoxin components of Pseudomonas sp. 9816 naphthalene dioxygenase”.

B2: Spinach ferredoxin reductase (protein)
chain: QIASDVEAPPPAPAKVEKHSKKMEEGITVNKFKPKTPYVGRCLLNTKITGDDAPGETWHMVFSHEGEIPYREGQSVGVIPDGEDKNGKPHKLRLYSIASSALGDFGDAKSVSLCVKRLIYTNDAGETIKGVCSNFLCDLKPGAEVKLTGPVGKEMLMPKDPNATIIMLGTGTGIAPFRSFLWKMFFEKHDDYKFNGLAWLFLGVPTSSSLLYKEEFEKMKEKAPDNFRLDFAVSREQTNEKGEKMYIQTRMAQYAVELWEMLKKDNTYFYMCGLKGMEKGIDDIMVSLAAAEGIDWIEYKRQLKKAEQWNVEVY
**Q.** With B2 as the molecule, how does the N-demethylase activity [8] read?
**A.** Its N-demethylase activity is “Ndm did not couple with ferredoxin reductase plus ferredoxin from spinach”.
